# Experimental data as given in patent US20050208496A1, “Methods of testing for bronchial asthma or chronic obstructive pulmonary disease” (Genox Research, Inc., priority 2002, published 2005).
# Legend:
# [1] = test system: respiratory epithelial cells; assay: Goblet cell differentiation of respiratory epithelial cells upon IL-13 stimulation (PAS and Alcian blue staining); assay type: cell-based, human
# Method: After the cell count was determined, cells were plated at the cell density of 10^6 cells/cm^2 on a filter membrane with 0.45-μm pores, being attached to the bottom of a Millicell-HA Culture Plate Insert (Millipore Corp.). At the time of plating, Vitrogen gel (Vitrogen from Celtrix Pharmaceuticals, Inc. was used after gelation) was placed on the filter membrane as a growth-supporting material, and the epithelial cells were placed thereon. The Millicell inserts were placed in a 24-well plate (Falcon) containing a culture medium, which was a 1:1 mixture of Dulbecco's MEM and Ham F12 containing 2% Ultroser G and the antibiotics, penicillin, streptomycin, gentamycin, and amphotericin B. The cells were incubated overnight. Then, cells that had not adhered to the collagen gel were removed, and the remaining cells were cultured while the cell side was in contact with air (air interface) for approximately two weeks (See FIG. 1). The basic procedures of the AI method by which respiratory epithelial cells were cultured were the same as those described in the following reports:
# As basically done in the AI method, Vitrogen gel was placed on a filter membrane, and epithelial cells were placed thereon. The IMM method is different from the AI method in the point that the IMM method comprises adding a medium to cover the epithelial cells. […]
# mouse pendrin gene = assay: Quantitative PCR of the mouse pendrin gene in the lung of the OVA antigen-exposed bronchial hypersensitivity model; assay type: in vivo; settings: lung 24 hours after third antigen inhalation
# [2] = test system: mouse OVA antigen-exposed bronchial hypersensitivity model; assay: Quantitative PCR (ABI 7700) of selected genes using cDNA of the mouse OVA antigen-exposed bronchial hypersensitivity model; assay type: in vivo; settings: OVA-administered group
# Method: Eighty-eight genes, most of which were recognized as genes whose expression levels were altered in human and mouse, were selected from the genes narrowed down in Section 4. A quantitative PCR assay was carried out with ABI 7700 using cDNA from the human goblet cell differentiation model and using cDNA from the mouse OVA antigen-exposed bronchial hypersensitivity model.
# The primers and TaqMan probe used in the assay with ABI 7700 were designed based on the information on the sequence of each gene utilizing Primer Express (PE Biosystems). The 5′ and 3′ ends of the TaqMan probe were labeled with FAM (6-carboxy-fluorescein) and TAMRA (6-carboxy-N,N,N′,N′-tetramethylrhodamine), respectively. The nucleotide sequences of oligonucleotides for the forward primer (F), reverse primer (R), and TaqMan probe (TP) for each gene are shown below. […]
# Furthermore, similar quantitative analyses for the β-actin gene and the glyceraldehyde-3-phosphate dehydrogenase (GAPDH) gene as internal standards for correction were carried out to correct the difference of cDNA concentration in a sample. The copy number of the gene of interest was determined by correcting based on the determined copy numbers for the genes. […]
Substance,"differentiation into goblet cells (PAS and Alcian blue staining) ([1]; AI method, IL-13 50 ng/mL, after 14 days of incubation)",goblet cell differentiation ([1]; IMM method),mouse pendrin gene expression level in the lung versus physiological saline-inhaled mice (quantitative PCR) (mouse pendrin gene),"expression levels of the respective genes (quantitative PCR, corrected with β-actin) [2]"
"IL-13: human IL-13 (Peprotech, Inc.) added to the medium at 50 ng/mL to stimulate respiratory epithelial cells",differentiated into goblet cells,not observed,,
"ovalbumin [OVA antigen, ovalbumin antigen used for sensitization and inhalation to induce bronchial hypersensitivity in mice]",,,about 50 times,significant variations
